Results: patent US20090239929A1, “N-Pyrrolidin-3-YL-Amide Derivatives As Serotonin and Noradrenalin Re-Uptake Inhibitors” (priority 2004, published 2009)
Structures can show the parent of a compound that is named as a salt.

Key:
[1] = target: T1, human serotonin transporter (hSERT) (Homo sapiens, UniProt P31645); assay: SPA radioligand binding (3H-citalopram) at the human serotonin transporter; details: hSERT membranes from HEK-293 cells, Cheng-Prusoff, geometric mean, read-out: SRI Ki
T1 construct: expressed in transfected cells; host or cells: HEK-293
Method: (§1) The compounds were tested for biological activity by their ability to inhibit binding of selective radioligands at the human serotonin and noradrenaline transporters (SERT and NET, respectively), using scintillation proximity assay (SPA) technology. The SPA binding was performed using cellular membrane preparations prepared from cell lines expressing human cDNA encoding either SERT or NET (hSERT, hNET), using the radioligands ^3H-citalopram and ^3H-nisoxetine.
(§2) Human embryonic kidney cells (HEK-293) expressing each transporter were maintained as a continuous culture, using standard cell culture techniques, in 50 mL of growth medium (see Media and Buffers for composition) in 225 cm^2 flasks, at 37° C. in a humidified atmosphere with 5% CO2 present. Cells were passaged from a 90% confluent monolayer at a ratio of 1:3-1:4.
(§3) For cell harvesting, the growth medium was removed from the monolayer and the cells were incubated with cell dissociation solution (Sigma) until showing signs of dissociation. The cells were subsequently knocked from the base of the flask and pelleted by centrifugation for storage (frozen at −80° C.) prior to further use.
(§4) Cell pellets were thawed on ice and resuspended in 3 mL of membrane preparation buffer (see Media and Buffers for composition) per 1 mL of packed cell volume, using a vortex mixer to disperse the cell pellet.
(§5) After incubation on ice for 10 minutes, the suspension was homogenised for four individual 10 second intervals using a hand-held homogeniser. The homogenate was then centrifuged at 1075×g for 20 minutes at 4° C.
(§6) The supernatants were then collected and retained. Initial cell & nuclei pellets (P1) were subsequently rehomogenised and centrifuged using the conditions cited above, and the supernatants collected and pooled with those retained from the first spin.
(§7) The pooled supernatants were centrifuged at 35000×g for 30 minutes at 4° C., and the supernatants discarded. The pellets (P2) were then resuspended in 1 mL of membrane preparation buffer per 1 mL of the original packed cell volume. Protein concentrations were then measured and the membrane suspension was finally frozen in aliquots of set volume and stored at −80° C. prior to use in assays.
(§8) The specific SPA bead type differed for each transporter, wheat germ agglutinin-coated yttrium silicate (YSi WGA) SPA beads were used for hSERT and WGA-coated polyvinyltoluene (PVT WGA) SPA beads for hNET assays. For each batch of membrane used, optimal concentrations of bead and membrane were determined
(§9) Tritiated radioligands specific to each transporter (^3H-citalopram for hSERT and ^3H-nisoxetine for hNET) were used. The assay free radioligand concentration was expressed as a percentage of the total free radioligand concentration to give an estimate of the radioligand depletion. The radioligand depletion in assays for both transporters was less than 30% to ensure that there was sufficient radioligand available for binding. The ligand depletion value was also used for selecting the optimal assay conditions when using new batches of membranes.
(§10) The affinity of the specific radioligand for the respective transporter was determined for each membrane batch at the selected protein and bead concentrations. This was achieved by the determination of the KD, the concentration of free radioligand at which 50% of the transporter binding sites were occupied. The mean KD for a radioligand at a batch of membranes was determined from data from a minimum of three separate assays. The mean KD was subsequently used for all assays using the membrane batch profiled to enable determination of Ki values of compounds studied using the method determined by Cheng and Prussoff (Cheng Y C and Prusoff W H. Relationship between the inhibition constant (Ki) and the concentration of inhibitor which causes 50% inhibition of an enzymatic reaction. Biochem Pharmacol 1973; 22:2099-[…].) […]

[2] = target: T2, human noradrenaline transporter (hNET) (Homo sapiens, UniProt P23975); assay: SPA radioligand binding (3H-nisoxetine) at the human noradrenaline transporter; details: hNET membranes from HEK-293 cells, Cheng-Prusoff, geometric mean, read-out: NRI Ki
T2 construct: expressed in transfected cells; host or cells: HEK-293
Method: as §1, §2, §3, §4, §5, §6, §7, §8, §9, §10

T1 sequence (P31645 whole entry): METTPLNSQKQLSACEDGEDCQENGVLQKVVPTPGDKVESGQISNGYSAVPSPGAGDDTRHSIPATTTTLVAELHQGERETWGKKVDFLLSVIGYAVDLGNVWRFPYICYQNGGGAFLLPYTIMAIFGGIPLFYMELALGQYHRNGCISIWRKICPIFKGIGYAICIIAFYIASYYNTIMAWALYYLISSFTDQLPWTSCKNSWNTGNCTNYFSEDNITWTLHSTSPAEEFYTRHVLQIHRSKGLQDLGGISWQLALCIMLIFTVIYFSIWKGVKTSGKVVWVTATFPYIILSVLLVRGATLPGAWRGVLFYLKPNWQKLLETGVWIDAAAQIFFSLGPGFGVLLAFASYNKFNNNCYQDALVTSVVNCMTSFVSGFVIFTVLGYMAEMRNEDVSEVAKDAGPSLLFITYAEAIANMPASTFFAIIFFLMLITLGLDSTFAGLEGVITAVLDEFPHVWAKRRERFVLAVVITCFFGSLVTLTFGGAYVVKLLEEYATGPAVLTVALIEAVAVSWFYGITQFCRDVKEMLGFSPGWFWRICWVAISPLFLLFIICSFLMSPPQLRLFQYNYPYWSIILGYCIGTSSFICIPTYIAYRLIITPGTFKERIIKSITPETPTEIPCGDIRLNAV
T2 sequence (P23975 whole entry): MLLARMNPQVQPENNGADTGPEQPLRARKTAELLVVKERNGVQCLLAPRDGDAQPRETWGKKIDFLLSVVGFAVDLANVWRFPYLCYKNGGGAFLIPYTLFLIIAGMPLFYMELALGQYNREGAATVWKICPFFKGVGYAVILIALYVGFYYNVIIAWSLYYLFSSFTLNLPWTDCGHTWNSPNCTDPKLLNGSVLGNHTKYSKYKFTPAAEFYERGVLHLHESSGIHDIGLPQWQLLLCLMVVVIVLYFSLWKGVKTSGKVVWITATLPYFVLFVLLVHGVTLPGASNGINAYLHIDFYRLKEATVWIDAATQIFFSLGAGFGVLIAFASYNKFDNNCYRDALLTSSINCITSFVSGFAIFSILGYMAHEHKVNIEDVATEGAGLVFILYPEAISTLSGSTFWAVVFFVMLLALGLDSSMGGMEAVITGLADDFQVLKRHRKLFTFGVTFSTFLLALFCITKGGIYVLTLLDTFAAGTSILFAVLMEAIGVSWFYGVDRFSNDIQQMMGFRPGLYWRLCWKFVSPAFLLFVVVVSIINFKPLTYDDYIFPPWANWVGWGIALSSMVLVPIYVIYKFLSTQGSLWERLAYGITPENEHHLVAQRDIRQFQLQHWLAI

SMILES	Ki [1]	Ki [2]
O=C(c1cccc(Cl)c1Cl)N(C(C1CC1)C1CC1)[C@H]1CCNC1 [Example 10, 2,3-dichloro-N-(dicyclopropylmethyl)-N-[(3S)-pyrrolidin-3-yl]benzamide hydrochloride]	11 nM	72 nM
O=C(c1cccc(Cl)c1Cl)N(CCC(F)(F)F)[C@H]1CCNC1 [Example 5, 2,3-Dichloro-N-[(3S)-pyrrolidin-3-yl]-N-(3,3,3-trifluoropropyl)benzamide hydrochloride]	21 nM	58 nM
CC(F)(F)CN(C(=O)c1ccccc1Oc1ccccc1)[C@H]1CCNC1 [Example 7, N-(2,2-Difluoropropyl)-2-phenoxy-N-[(3S)-pyrrolidin-3-yl]benzamide hydrochloride]	1590 nM	10 nM

Other lines, results leading:

Ki [1]	Ki [2]	SMILES
6 nM	25 nM	O=C(c1ccccc1Cl)N(C1CC2CCC1C2)[C@H]1CCNC1 (stereo partly drawn) [Example 4, N-Bicyclo[2.2.1]hept-2-yl-2-chloro-N-[(3S)-pyrrolidin-3-yl]benzamide]
30 nM	28 nM	O=C(c1ccccc1C(F)(F)F)N(C1CC2CCC1C2)[C@H]1CCNC1 (stereo partly drawn) [Example 3, N-Bicyclo[2.2.1]hept-2-yl-2-(trifluoromethyl)N-[(3S)pyrrolidin-3-yl]benzamide]
9 nM	12 nM	O=C(c1cccc(Cl)c1Cl)N([C@H]1C[C@H]2CC[C@H]2C1)[C@H]1CCNC1 [Example 1, N-(1R,3r,5 S)-Bicyclo[3.2.0]hept-3-yl-2,3-dichloro-N-[(3S)-pyrrolidin-3-yl]benzamide]
